Assays:
[1] = target: Platelet-derived growth factor receptor alpha (Homo sapiens, UniProt P16234); experiment: Selectivity interaction (KinomeScan (DiscoverX)) EUB0000229b PDGFRA; conditions: at 10 µM
[2] = target: Phosphatidylinositol 3-kinase catalytic subunit type 3 (Homo sapiens, UniProt Q8NEB9); experiment: Selectivity interaction (ActivX KiNativ screen (kinase selectivity in THP-1 cell lysates)) EUB0000639a PIK3C3; assay type: subcellular; conditions: lysate, at 0.04 µM
[3] = target: Tyrosine-protein kinase JAK2 (Homo sapiens, UniProt O60674); experiment: Selectivity interaction (KinomeScan (DiscoverX)) EUB0000695a JAK2; conditions: at 100 nM
Chain of Tyrosine-protein kinase JAK2 (O60674 whole entry): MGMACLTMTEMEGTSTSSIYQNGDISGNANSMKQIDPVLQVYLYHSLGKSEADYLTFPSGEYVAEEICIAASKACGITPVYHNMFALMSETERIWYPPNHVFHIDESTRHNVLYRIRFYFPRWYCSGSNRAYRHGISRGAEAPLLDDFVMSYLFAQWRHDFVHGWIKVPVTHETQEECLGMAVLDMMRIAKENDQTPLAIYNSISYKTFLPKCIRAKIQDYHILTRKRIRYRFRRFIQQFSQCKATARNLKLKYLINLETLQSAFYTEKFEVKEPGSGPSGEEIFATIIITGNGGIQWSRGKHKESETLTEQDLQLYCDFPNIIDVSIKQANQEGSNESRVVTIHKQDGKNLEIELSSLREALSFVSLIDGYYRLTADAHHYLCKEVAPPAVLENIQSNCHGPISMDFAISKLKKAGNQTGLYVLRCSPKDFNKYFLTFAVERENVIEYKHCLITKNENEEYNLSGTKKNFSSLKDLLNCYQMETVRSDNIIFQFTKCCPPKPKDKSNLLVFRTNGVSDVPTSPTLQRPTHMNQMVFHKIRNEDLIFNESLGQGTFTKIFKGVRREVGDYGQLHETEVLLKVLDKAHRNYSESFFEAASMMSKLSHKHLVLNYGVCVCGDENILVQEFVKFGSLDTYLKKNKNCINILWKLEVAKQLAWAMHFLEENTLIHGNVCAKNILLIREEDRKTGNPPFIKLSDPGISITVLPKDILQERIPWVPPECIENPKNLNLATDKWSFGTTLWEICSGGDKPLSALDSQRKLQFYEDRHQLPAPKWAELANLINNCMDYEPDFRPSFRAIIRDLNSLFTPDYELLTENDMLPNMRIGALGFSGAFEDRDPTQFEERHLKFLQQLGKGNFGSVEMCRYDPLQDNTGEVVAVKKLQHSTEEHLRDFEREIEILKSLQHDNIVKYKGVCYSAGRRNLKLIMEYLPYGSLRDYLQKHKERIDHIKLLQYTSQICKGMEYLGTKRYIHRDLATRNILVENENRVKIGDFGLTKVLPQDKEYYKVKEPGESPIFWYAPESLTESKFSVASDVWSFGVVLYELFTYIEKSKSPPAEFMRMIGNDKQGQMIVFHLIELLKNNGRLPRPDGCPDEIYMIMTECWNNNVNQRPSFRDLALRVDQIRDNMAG

[4] = target: AP2-associated protein kinase 1 (Homo sapiens, UniProt Q2M2I8); experiment: Selectivity interaction (KinomeScan (DiscoverX)) EUB0000045b AAK1
Chain of AP2-associated protein kinase 1 (Q2M2I8 whole entry, looked up): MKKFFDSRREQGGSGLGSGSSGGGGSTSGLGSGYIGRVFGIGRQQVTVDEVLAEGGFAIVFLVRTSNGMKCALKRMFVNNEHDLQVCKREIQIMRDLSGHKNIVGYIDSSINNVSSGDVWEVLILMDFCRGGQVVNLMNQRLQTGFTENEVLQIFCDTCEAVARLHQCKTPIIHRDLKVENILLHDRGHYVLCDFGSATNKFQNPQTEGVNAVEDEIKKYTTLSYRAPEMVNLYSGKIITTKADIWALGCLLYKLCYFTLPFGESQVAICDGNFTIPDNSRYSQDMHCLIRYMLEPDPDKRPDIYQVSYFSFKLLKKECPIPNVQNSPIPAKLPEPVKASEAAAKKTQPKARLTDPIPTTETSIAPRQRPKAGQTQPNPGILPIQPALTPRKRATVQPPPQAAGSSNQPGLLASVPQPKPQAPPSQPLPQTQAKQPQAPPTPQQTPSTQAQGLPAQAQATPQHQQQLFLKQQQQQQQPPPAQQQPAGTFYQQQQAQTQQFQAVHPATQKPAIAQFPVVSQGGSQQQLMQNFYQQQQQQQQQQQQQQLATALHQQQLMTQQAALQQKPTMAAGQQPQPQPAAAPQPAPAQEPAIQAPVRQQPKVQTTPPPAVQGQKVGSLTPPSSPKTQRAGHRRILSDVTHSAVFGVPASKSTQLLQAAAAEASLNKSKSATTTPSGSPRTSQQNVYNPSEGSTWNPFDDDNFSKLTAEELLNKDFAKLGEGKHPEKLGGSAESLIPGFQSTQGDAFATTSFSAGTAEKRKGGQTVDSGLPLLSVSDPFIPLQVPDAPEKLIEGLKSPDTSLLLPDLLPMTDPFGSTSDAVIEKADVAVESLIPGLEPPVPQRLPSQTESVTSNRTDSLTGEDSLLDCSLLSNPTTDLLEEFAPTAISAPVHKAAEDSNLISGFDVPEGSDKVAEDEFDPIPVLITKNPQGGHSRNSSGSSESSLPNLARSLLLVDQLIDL

[5] = target: T1, Serine/threonine-protein kinase TAO3 (Homo sapiens) (UniProt Q9H2K8); experiment: Selectivity interaction (KinomeScan (DiscoverX)) EUB0001619a TAOK3; conditions: at 1 µM
T1 sequence (whole entry): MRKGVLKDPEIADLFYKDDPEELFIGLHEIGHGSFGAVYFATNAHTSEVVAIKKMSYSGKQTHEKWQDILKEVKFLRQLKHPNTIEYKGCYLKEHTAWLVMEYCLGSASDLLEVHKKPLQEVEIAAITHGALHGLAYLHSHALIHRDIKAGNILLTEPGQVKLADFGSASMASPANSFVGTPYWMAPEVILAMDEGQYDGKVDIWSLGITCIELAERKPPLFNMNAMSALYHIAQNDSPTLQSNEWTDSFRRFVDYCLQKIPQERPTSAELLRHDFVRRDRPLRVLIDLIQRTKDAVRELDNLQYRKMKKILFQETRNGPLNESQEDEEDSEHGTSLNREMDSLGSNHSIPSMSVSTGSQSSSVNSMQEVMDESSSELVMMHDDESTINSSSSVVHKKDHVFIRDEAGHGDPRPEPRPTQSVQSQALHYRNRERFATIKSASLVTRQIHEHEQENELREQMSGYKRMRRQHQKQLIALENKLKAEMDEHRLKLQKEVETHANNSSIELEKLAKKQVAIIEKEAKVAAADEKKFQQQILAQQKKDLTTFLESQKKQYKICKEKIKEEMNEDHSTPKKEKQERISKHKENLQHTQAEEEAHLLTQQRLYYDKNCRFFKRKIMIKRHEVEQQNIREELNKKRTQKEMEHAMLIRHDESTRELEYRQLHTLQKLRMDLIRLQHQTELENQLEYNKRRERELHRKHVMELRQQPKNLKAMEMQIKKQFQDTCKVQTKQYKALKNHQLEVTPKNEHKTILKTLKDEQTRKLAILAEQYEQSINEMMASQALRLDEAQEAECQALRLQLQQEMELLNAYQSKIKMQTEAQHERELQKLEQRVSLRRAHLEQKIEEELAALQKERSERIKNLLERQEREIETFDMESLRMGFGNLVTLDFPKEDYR

[6] = target: T2, Muscle, skeletal receptor tyrosine-protein kinase (Homo sapiens) (UniProt O15146); experiment: Selectivity interaction (KinomeScan (DiscoverX)) EUB0001619a MUSK; conditions: at 1 µM
T2 sequence (whole entry): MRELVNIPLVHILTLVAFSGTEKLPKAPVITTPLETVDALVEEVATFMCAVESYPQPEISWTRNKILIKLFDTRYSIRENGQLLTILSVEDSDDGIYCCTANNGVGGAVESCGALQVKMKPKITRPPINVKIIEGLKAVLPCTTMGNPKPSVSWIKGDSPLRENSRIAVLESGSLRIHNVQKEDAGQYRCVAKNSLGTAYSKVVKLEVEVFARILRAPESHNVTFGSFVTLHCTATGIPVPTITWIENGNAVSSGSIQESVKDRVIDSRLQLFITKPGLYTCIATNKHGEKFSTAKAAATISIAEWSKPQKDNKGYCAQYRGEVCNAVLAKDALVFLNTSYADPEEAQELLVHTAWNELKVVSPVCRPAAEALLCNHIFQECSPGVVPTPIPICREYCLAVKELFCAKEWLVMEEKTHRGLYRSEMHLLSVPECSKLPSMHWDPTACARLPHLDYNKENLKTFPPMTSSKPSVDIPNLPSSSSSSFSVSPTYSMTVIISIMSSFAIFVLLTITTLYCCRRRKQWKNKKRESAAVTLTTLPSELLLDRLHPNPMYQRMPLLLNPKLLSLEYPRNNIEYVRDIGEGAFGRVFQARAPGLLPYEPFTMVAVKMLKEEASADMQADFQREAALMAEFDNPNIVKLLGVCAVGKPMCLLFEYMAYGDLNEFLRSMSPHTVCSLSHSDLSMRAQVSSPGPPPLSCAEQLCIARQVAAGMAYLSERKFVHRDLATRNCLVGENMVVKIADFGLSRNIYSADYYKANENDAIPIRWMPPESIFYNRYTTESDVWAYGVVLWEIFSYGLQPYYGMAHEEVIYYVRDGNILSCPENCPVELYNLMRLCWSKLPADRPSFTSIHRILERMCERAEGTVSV

[7] = target: T3, Serine/threonine-protein kinase D3 (Homo sapiens) (UniProt O94806); experiment: Selectivity interaction (KinomeScan (DiscoverX)) EUB0001619a PRKD3; conditions: at 1 µM
T3 sequence (whole entry): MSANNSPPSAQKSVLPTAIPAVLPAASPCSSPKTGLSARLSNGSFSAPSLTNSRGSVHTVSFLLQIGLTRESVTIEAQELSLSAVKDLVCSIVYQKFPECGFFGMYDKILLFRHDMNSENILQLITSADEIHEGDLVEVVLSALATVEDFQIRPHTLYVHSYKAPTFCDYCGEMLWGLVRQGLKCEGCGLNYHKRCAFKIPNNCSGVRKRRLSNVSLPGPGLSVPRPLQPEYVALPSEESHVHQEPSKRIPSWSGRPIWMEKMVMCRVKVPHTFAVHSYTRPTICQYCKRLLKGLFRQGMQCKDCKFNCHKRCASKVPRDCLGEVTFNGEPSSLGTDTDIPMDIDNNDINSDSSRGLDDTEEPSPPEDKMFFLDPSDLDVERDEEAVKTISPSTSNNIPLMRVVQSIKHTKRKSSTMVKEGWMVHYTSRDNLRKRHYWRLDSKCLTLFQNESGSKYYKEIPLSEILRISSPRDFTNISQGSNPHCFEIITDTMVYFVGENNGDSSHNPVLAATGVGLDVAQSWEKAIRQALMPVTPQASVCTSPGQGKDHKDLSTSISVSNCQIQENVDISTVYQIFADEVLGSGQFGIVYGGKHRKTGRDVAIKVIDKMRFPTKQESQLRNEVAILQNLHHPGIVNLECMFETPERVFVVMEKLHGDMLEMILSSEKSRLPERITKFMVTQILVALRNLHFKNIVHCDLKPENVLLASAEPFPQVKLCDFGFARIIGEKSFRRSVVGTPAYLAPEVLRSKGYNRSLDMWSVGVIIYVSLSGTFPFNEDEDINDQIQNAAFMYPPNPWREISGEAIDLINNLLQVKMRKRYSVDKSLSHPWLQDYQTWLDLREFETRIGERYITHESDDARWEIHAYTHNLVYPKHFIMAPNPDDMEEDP

Chain of Platelet-derived growth factor receptor alpha (P16234 whole entry): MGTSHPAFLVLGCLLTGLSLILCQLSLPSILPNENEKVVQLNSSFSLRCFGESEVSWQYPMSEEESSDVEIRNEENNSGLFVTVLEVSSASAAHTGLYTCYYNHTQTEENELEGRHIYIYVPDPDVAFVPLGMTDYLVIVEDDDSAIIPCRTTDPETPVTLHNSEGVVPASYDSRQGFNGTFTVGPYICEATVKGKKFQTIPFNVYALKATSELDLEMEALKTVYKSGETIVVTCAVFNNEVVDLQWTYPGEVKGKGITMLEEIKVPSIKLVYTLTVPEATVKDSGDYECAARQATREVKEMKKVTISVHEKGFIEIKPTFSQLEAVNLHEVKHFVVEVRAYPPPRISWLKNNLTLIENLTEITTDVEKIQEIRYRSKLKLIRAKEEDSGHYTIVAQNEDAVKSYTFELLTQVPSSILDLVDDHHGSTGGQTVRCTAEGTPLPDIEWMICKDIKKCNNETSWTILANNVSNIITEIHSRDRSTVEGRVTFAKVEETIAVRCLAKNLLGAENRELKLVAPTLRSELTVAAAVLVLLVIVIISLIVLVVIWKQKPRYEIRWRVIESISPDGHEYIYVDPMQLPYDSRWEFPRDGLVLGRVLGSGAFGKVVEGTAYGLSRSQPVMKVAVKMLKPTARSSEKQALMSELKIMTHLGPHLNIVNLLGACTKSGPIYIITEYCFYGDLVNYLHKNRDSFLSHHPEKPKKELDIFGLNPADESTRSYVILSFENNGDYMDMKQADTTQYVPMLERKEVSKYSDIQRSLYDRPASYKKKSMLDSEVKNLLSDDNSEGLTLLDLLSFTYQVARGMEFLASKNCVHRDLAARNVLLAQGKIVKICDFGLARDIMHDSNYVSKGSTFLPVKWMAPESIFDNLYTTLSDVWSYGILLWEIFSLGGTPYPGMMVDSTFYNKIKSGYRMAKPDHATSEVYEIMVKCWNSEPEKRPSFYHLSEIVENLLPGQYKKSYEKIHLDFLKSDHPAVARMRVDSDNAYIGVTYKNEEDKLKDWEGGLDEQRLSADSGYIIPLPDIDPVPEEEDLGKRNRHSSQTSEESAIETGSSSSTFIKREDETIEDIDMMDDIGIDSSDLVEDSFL
Chain of Phosphatidylinositol 3-kinase catalytic subunit type 3 (Q8NEB9 whole entry): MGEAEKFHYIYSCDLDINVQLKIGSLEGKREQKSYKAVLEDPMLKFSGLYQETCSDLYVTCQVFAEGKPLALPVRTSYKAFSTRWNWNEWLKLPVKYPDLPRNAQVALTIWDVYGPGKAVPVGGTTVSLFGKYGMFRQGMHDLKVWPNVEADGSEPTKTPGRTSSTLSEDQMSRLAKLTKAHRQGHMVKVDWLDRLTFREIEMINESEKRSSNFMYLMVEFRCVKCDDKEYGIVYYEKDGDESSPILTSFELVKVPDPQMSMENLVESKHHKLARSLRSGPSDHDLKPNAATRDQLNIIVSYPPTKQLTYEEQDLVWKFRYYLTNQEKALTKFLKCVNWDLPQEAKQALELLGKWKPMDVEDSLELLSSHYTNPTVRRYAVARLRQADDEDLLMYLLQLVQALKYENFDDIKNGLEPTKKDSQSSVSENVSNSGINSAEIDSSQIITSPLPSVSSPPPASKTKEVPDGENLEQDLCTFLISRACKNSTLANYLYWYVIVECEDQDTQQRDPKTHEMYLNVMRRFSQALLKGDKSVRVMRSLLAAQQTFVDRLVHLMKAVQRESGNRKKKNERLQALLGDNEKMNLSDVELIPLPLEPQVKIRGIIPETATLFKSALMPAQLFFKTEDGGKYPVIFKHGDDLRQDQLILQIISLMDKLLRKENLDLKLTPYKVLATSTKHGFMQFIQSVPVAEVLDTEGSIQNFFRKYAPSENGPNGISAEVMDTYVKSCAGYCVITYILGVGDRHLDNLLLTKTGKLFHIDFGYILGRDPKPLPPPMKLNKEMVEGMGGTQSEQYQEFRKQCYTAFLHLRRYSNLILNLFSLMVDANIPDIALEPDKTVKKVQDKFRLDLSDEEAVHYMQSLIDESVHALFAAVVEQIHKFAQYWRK

COc1cc(N(C)c2ccnc3ccc(C(F)(F)F)cc23)cc(OC)c1OC
% binding [1]: 98%

CC[C@@H]1[C@H](F)C(=O)N[C@@H]1COc1nccc2cc(C(N)=O)c(OC)cc12 [ZIMLOVISERTIB]
% of inhibition [2]: -7%

Cc1cc(F)c(C(=O)Nc2cccc(-c3nncn3C(C)C)n2)cc1-n1cnc(C2CC2)c1
% of control [3]: 85%

C=CC(=O)Nc1cc(-n2c(=O)ccc3cnc4ccc(-c5ccc(NS(C)(=O)=O)cc5)cc4c32)ccc1C
% of control ([4]; at 1 µM): 93% | % of control ([4]; at 10 µM): 58%

N#Cc1cccc(-c2c[nH]c3ncnc(N4CCOCC4)c23)c1
% of control [5]: 36% | % of control [6]: 95% | % of control [7]: 64%

From ChEMBL document CHEMBL5465560, “Selectivity Literature for EUbOPEN Chemogenomic Library” (2024)
